{"source": "paper PMC7558399", "about": "“In Vitro Selective Growth-Inhibitory Activities of Phytochemicals, Synthetic Phytochemical Analogs, and Antibiotics against Diarrheagenic/Probiotic Bacteria and Cancer/Normal Intestinal Cells” (Pharmaceuticals, 2020)", "assay_type_in_all_cases": "cell-based", "key": {"[1]": {"test_system": "S. enterica ssp. enterica serovar Typhimurium (ATCC 14028)", "experiment": "Broth microdilution MIC, Salmonella Typhimurium", "conditions": "Salmonella Typhimurium, growth inhibited by ≥80%, read-out: MIC"}, "[2]": {"test_system": "Bifidobacterium breve (ATCC 15700)", "experiment": "Broth microdilution MIC, B. breve", "conditions": "ATCC15700, growth inhibited by ≥80%, read-out: MIC"}, "[3]": {"test_system": "Clostridium perfringens (DSMZ 11778)", "experiment": "microbe, parasite or virus in culture", "conditions": "DSMZ11778"}, "[4]": {"test_system": "Lactobacillus reuteri (CCM 3625)", "experiment": "Broth microdilution MIC, L. reuteri", "conditions": "Limosilactobacillus reuteri, CCM3625; Lactobacillus reuteri; growth inhibited by ≥80%; read-out: MIC"}, "[5]": {"test_system": "E. coli 0175:H7 (NCTC 12900)", "experiment": "microbe, parasite or virus in culture", "conditions": "Escherichia coli, NCTC12900"}, "[6]": {"test_system": "diarrheagenic bacteria (12 strains)", "experiment": "microbe, parasite or virus in culture", "conditions": "mean of 12 strains; >512 replaced with 1024; read-out: x¯ -DB ± SD: mean MIC for diarrheagenic bacteria"}, "[7]": {"test_system": "Lactobacillus casei (DSMZ 20011)", "experiment": "Broth microdilution MIC, L. casei", "conditions": "Lacticaseibacillus casei, DSMZ20011; Lactobacillus casei; growth inhibited by ≥80%; read-out: MIC"}, "[8]": {"test_system": "Shigella flexneri (ATCC 12022)", "experiment": "microbe, parasite or virus in culture", "conditions": "ATCC12022"}, "[9]": {"test_system": "Bifidobacterium bifidum (ATCC 29521)", "experiment": "Broth microdilution MIC, B. bifidum", "conditions": "ATCC29521, growth inhibited by ≥80%, read-out: MIC"}, "[10]": {"test_system": "Yersinia enterocolitica (ATCC 9610)", "experiment": "Broth microdilution MIC, Y. enterocolitica", "conditions": "ATCC9610, growth inhibited by ≥80%, read-out: MIC"}, "[11]": {"test_system": "Salmonella enterica ssp. enterica serovar Enteritidis (ATCC 13076)", "experiment": "Broth microdilution MIC, Salmonella Enteritidis", "conditions": "Salmonella Enteritidis, growth inhibited by ≥80%, read-out: MIC"}, "[12]": {"test_system": "probiotic bacteria (9 strains)", "experiment": "Broth microdilution MIC, probiotic bacteria as a group (mean or range over strains)", "conditions": "mean of 9 strains; >512 replaced with 1024; read-out: x¯ -PB ± SD: mean MIC for probiotic bacteria"}, "[13]": {"test_system": "HT29 (ATCC HTB 38) intestinal cancer cells", "experiment": "MTT cytotoxicity assay, HT29", "conditions": "Homo sapiens, HT-29, HT29, MTT, 72 h"}, "[14]": {"test_system": "Enterococcus faecalis (ATCC 29212)", "experiment": "Broth microdilution MIC, E. faecalis", "conditions": "ATCC29212, growth inhibited by ≥80%, read-out: MIC"}, "[15]": {"test_system": "Bifidobacterium adolescentis (DSMZ 20087)", "experiment": "Broth microdilution MIC, B. adolescentis", "conditions": "DSMZ20087, growth inhibited by ≥80%, read-out: MIC"}, "[16]": {"test_system": "21 strains (diarrheagenic and probiotic bacteria)", "experiment": "organism not typed", "conditions": "any of the 21 strains"}, "[17]": {"test_system": "Caco-2 (ATCC HTB 37) intestinal cancer cells", "experiment": "MTT cytotoxicity assay, Caco-2", "conditions": "Homo sapiens, Caco-2, MTT, 72 h"}, "[18]": {"test_system": "Bacillus cereus (ATCC 14579)", "experiment": "Broth microdilution MIC, B. cereus", "conditions": "ATCC14579, growth inhibited by ≥80%, median/mode, read-out: MIC"}, "[19]": {"test_system": "Lactobacillus rhamnosus (CCM 7091)", "experiment": "Broth microdilution MIC, L. rhamnosus", "conditions": "Lacticaseibacillus rhamnosus, CCM7091; Lactobacillus rhamnosus; growth inhibited by ≥80%; read-out: MIC"}, "[20]": {"test_system": "Bifidobacterium animalis spp. lactis (DSMZ 10140)", "experiment": "Broth microdilution MIC, B. animalis spp. lactis", "conditions": "DSMZ10140; Bifidobacterium animalis spp. lactis; growth inhibited by ≥80%; read-out: MIC"}, "[21]": {"test_system": "Bacteroides fragilis (ATCC 25285)", "experiment": "Broth microdilution MIC, B. fragilis", "conditions": "ATCC25285, growth inhibited by ≥80%, read-out: MIC"}, "[22]": {"test_system": "Clostridium difficile (DSMZ 12056)", "experiment": "microbe, parasite or virus in culture", "conditions": "Clostridioides difficile, DSMZ12056"}, "[23]": {"test_system": "FHs 74 Int (ATCC CCL 241) intestinal normal cells", "experiment": "MTT cytotoxicity assay, FHs 74 Int", "conditions": "FHs74Int, 72 h, FHs 74 Int (intestinal normal cells), MTT"}, "[24]": {"test_system": "intestinal cancer cells (HT29 and Caco-2)", "experiment": "MTT cytotoxicity assay, mean for intestinal cancer cells"}, "[25]": {"test_system": "Vibrio parahaemolyticus (ATCC 17802)", "experiment": "Broth microdilution MIC, V. parahaemolyticus", "conditions": "ATCC17802, growth inhibited by ≥80%, read-out: MIC"}, "[26]": {"test_system": "Escherichia coli (ATCC 25922)", "experiment": "Broth microdilution MIC, E. coli", "conditions": "ATCC25922, growth inhibited by ≥80%, read-out: MIC"}, "[27]": {"test_system": "Listeria monocytogenes (ATCC 7644)", "experiment": "Broth microdilution MIC, L. monocytogenes", "conditions": "ATCC7644, growth inhibited by ≥80%, read-out: MIC"}, "[28]": {"test_system": "Bifidobacterium longum ssp. longum (DSMZ 20219)", "experiment": "Broth microdilution MIC, B. longum ssp. longum", "conditions": "DSMZ20219; Bifidobacterium longum ssp. longum; growth inhibited by ≥80%; read-out: MIC"}, "[29]": {"conditions": "read-out: IC80 ± SD (80% inhibitory concentration of proliferation)"}}, "data": [{"smiles": "COc1ccc2cc3[n+](cc2c1OC)CCc1cc2c(cc1-3)OCO2", "note": "[BR, berberine chloride]", "values": [{"measurement": "MIC", "setting": "[1]", "result": 512, "unit": "µg/mL"}, {"measurement": "MIC", "setting": "[2]", "result": 64, "unit": "µg/mL"}, {"measurement": "MIC", "setting": "[3]", "result": 256, "unit": "µg/mL"}, {"measurement": "MIC", "setting": "[4]", "result": "> 512", "unit": "µg/mL"}, {"measurement": "MIC", "setting": "[5]", "result": "> 512", "unit": "µg/mL"}, {"measurement": "MIC", "setting": "[6]", "result": "875 ± 256", "unit": "µg/mL"}, {"measurement": "MIC", "setting": "[7]", "result": 64, "unit": "µg/mL"}, {"measurement": "MIC", "setting": "[8]", "result": "> 512", "unit": "µg/mL"}, {"measurement": "MIC", "setting": "[9]", "result": 64, "unit": "µg/mL"}, {"measurement": "MIC", "setting": "[10]", "result": "> 512", "unit": "µg/mL"}, {"measurement": "MIC", "setting": "[11]", "result": "> 512", "unit": "µg/mL"}, {"measurement": "MIC", "setting": "[12]", "result": "277 ± 400", "unit": "µg/mL"}, {"measurement": "IC50", "setting": "[13]; read-out: IC50 ± SD", "result": "5 ± 1", "unit": "µg/mL"}, {"measurement": "IC80", "setting": "[13]; [29]", "result": "42.1 ± 7.3", "unit": "µg/mL"}, {"measurement": "MIC", "setting": "[14]", "result": "> 512", "unit": "µg/mL"}, {"measurement": "MIC", "setting": "[15]", "result": 128, "unit": "µg/mL"}, {"measurement": "MIC", "setting": "[16]", "result": "≥ 32", "unit": "µg/mL"}, {"measurement": "IC50", "setting": "[17]; read-out: IC50 ± SD", "result": "19.4 ± 2.9", "unit": "µg/mL"}, {"measurement": "IC80", "setting": "[17]; [29]", "result": "78.9 ± 0.3", "unit": "µg/mL"}, {"measurement": "MIC", "setting": "[18]", "result": "> 512", "unit": "µg/mL"}, {"measurement": "MIC", "setting": "[19]", "result": 64, "unit": "µg/mL"}, {"measurement": "MIC", "setting": "[20]", "result": 32, "unit": "µg/mL"}, {"measurement": "MIC", "setting": "[21]", "result": "> 512", "unit": "µg/mL"}, {"measurement": "MIC", "setting": "[22]", "result": "> 512", "unit": "µg/mL"}, {"measurement": "IC50", "setting": "[23]; read-out: IC50 ± SD", "result": "1 ± 0.1", "unit": "µg/mL"}, {"measurement": "IC80", "setting": "[23]; [29]", "result": "26.4 ± 0.8", "unit": "µg/mL"}, {"measurement": "IC50", "setting": "[24]; mean of HT29 and Caco-2, >512 replaced with 1024, read-out: x¯ -CC ± SD: mean IC50 for intestinal cancer cells", "result": "12.2 ± 7", "unit": "µg/mL"}, {"measurement": "IC80", "setting": "[24]; read-out: x¯ -CC ± SD: mean IC80 for intestinal cancer cells", "result": "60.5 ± 18.4", "unit": "µg/mL"}, {"measurement": "MIC", "setting": "[25]", "result": 512, "unit": "µg/mL"}, {"measurement": "MIC", "setting": "[26]", "result": "> 512", "unit": "µg/mL"}, {"measurement": "MIC", "setting": "[27]", "result": "> 512", "unit": "µg/mL"}, {"measurement": "MIC", "setting": "[28]", "result": 32, "unit": "µg/mL"}]}]}
